Experimental data from patent US20090023704A1, “Novel Compounds 737” (ASTRAZENECA AB, priority 2007, published 2009).

target: T1, GABAB receptor (GABABR1a/GABABR2 heterodimer) (Homo sapiens, UniProt O75899+Q9UBS5); test: [35S]-GTPγS binding assay, potency of PAM (GABA dose-response curves with and without test compound); format: biochemical; settings: potency of the positive allosteric modulator; GABA dose-response in presence of test compound
T1 construct: expressed in transfected cells
Description: GABABR1a and GABABR2 were cloned from human brain cDNA and subcloned into pCI-Neo (Promega) and pALTER-1 (Promega), respectively. A GABABR1a-Gαqi5 fusion protein expression vector was constructed using the pCI-Neo-GABABR1a cDNA plasmid and pLEC1-Gαqi5 (Molecular Devices, CA). In order to make the Gαqi5 pertussis toxin insensitive, Cys356 was mutated to Gly using standard PCR methodology with the primers 5′-[…]-3′ (forward) and 5′-GCGGCCG […]-3′ (reverse). The Gαqi5mut cDNA was ligated into the BamHI and NotI sites of pcDNA3.0 (Invitrogen). The GABAB R1a coding sequence was amplified by PCR from pCI-Neo-GABABR1a using the primers, 5′-[…]-3′ (forward) and 5′-[…]-3′ (reverse) and subcloned into the BamHI site of pcDNA3.0-Gαqi5mut.
For generation of a cell line expressing the GABABR1a/GABABR2 heterodimer, GABABR1a plasmid DNA (4 μg) GABABR2 plasmid DNA (4 μg) and lipofectamine (24 μl) were mixed in 5 ml OptiMEM and incubated for 45 minutes at room temperature. The cells were exposed to the transfection medium for 5 hours, which then was replaced with culture medium. The cells were cultured for an additional 10 days before selection agents (300 μg/ml hygromycin and 400 μg/ml geneticin) were added. Twenty-four days after transfection, single cell sorting into 96-well plates by flow cytometry was performed using a FACS Vantage SE (Becton Dickinson, Palo Alto, Calif.). After expansion, the GABAB receptor functional response was tested using the FLIPR assay described below. The clone with the highest functional response was collected, expanded and then subcloned by single cell sorting. The clonal cell line with the highest peak response in the FLIPR was used in the present study.
For generation of a stable cell line expressing GABABR1a-Gαqi5 fusion protein and GABABR2, GABABR1a-Gαqi5mut plasmid DNA (8 μg) GABABR2 plasmid DNA (8 μg) and lipofectamine (24 μl) were mixed in 5 ml OptiMEM and incubated for 45 minutes at room temperature. The cells were exposed to the transfection medium for 5 hours, which then was replaced with culture medium. After forty-eight hours, the cells were detached and seeded in 6 well plates (2000 cells/well) and grown in culture medium supplemented with geneticin (400 μg/ml) and zeocin (250 μg/ml). After 4 days, cells from single colonies were collected and transferred to a 24-well plate. After 10 days, the cell clones were seeded in T-25 flasks and grown for another 16 days before they were tested for GABAB receptor mediated functional response. […] The clonal cell line that gave the highest peak response in the FLIPR was used in the present study.
[^35S]-GTPγS binding assays were performed at 30° C. for 45 min in membrane buffer (100 mM NaCl, 5 mM MgCl2, 1 mM EDTA, 50 mM HEPES, pH 7.4) containing 0.025 μg/μl of membrane protein (prepared from the cell lines described above) with 0.01% bovine serum albumin (fatty acid free), 10 μM GDP, 10 μM DTT and 0.53 nM [^35S]-GTPγS (Amersham-Pharmacia Biotech) in a final volume of 200 μl. Non-specific binding was determined in the presence of 20 μM GTPγS. The reaction was started by the addition of GABA at concentration between 1 mM and 0.1 nM in the presence or absence of the required concentration of PAM. The reaction was terminated by addition of ice-cold wash buffer (50 mM Tris-HCl, 5 mM MgCl2, 50 mM NaCl, pH 7.4) followed by rapid filtration under vacuum through Printed Filtermat A glass fiber filters (Wallac) (0.05% PEI treated) using a Micro 96 Harvester (Skatron Instruments). The filters were dried for 30 min at 50° C., then a paraffin scintillant pad was melted onto the filters and the bound radioactivity was determined using a 1450 Microbeta Trilux (Wallac) scintillation counter.
GABA dose-response curves in the presence and absence of test compounds were constructed using the 4-parameter logistic equation, y=ymax+((ymin−ymax)/1+(x/C)^D), where C=EC50 and D=slope factor.

T1 sequence (Q9UBS5 15-961 limits assumed): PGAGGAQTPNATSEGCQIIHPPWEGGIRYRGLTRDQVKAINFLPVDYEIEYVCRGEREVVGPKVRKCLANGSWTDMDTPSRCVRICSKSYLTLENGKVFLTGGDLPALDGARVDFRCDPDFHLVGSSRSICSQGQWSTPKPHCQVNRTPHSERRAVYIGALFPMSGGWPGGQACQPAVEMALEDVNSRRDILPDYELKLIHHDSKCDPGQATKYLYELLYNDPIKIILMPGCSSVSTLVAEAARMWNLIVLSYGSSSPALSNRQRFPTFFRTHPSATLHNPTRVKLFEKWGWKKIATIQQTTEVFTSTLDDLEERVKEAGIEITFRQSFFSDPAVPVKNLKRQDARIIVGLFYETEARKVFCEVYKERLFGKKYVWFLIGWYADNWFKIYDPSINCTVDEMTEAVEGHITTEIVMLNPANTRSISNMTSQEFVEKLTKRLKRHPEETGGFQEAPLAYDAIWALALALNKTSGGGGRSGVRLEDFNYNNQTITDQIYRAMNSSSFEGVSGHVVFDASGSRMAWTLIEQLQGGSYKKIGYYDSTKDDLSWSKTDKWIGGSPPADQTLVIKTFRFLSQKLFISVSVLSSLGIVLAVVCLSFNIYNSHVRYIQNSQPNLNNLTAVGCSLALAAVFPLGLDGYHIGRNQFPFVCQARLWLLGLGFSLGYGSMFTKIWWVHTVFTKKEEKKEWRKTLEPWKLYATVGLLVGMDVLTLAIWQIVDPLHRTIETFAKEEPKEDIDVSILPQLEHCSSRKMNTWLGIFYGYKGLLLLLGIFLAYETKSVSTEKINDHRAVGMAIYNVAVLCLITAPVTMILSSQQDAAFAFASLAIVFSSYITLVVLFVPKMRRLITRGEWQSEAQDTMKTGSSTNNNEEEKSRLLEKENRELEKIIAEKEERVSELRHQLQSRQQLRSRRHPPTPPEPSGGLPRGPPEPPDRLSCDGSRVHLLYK
T1 sequence (O75899 42-941): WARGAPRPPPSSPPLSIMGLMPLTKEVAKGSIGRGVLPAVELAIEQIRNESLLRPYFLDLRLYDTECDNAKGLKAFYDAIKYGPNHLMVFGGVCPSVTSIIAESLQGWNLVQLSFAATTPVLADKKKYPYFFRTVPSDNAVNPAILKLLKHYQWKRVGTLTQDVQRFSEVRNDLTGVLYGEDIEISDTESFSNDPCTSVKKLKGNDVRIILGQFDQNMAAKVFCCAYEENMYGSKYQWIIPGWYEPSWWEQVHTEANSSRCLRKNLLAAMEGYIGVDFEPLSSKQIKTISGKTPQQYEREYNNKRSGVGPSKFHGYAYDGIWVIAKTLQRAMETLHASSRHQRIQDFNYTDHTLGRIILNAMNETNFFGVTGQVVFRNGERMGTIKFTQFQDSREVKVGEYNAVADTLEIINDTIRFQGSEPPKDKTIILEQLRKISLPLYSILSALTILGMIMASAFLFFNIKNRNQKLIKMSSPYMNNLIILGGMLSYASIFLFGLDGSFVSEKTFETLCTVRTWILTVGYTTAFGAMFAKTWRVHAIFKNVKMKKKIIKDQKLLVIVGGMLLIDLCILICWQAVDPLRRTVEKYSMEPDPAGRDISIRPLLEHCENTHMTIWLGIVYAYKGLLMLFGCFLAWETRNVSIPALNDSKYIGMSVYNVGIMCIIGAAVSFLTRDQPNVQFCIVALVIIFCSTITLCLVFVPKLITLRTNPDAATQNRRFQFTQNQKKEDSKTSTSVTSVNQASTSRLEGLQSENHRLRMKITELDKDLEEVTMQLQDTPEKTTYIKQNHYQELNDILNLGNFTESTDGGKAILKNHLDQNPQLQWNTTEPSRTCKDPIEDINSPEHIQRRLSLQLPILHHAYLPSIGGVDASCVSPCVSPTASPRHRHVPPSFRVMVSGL

| EC50 | Compound |
| --- | --- |
| 11.3 µM | CCc1nc2c(c(=O)n(Cc3ccc(Cl)c(Cl)c3)c(=O)n2CC(=O)[C@]23C[C@@H]4C[C@H](C[C@@H](C4)C2)C3)n1C [Example 42, 3-{2-[(3S,5S,7S)-Adamantan-1-yl]-2-oxoethyl}-1-(3,4-dichlorobenzyl)-8-ethyl-7-methyl-3,7-dihydro-1H-purine-2,6-dione] |
| 3.5 µM | CCc1nc2c(c(=O)n(Cc3ccc(Cl)cc3)c(=O)n2Cc2ccc(-n3cccn3)cc2)n1C [Example 26, 1-(4-chlorobenzyl)-8-ethyl-7-methyl-3-[4-(1H-pyrazol-1-yl)benzyl]-3,7-dihydro-1H-purine-2,6-dione] |
| 4.6 µM | CCc1nc2c(c(=O)n(Cc3ccc(Cl)cc3)c(=O)n2Cc2c(-c3ccccc3)noc2C)n1C [Example 30, 1-(4-chlorobenzyl)-8-ethyl-7-methyl-3-[(5-methyl-3-phenylisoxazol-4-yl)methyl]-3,7-dihydro-1H-purine-2,6-dione] |
| 5.7 µM | CCCn1c(=O)n(Cc2ccc(C(F)(F)F)cc2)c(=O)c2c1nc(CC)n2C [Example 62, 8-Ethyl-7-methyl-3-propyl-1-[4-(trifluoromethyl)benzyl]-3,7-dihydro-1H-purine-2,6-dione] |
| 14.6 µM | CCc1nc2c(c(=O)n(Cc3ccc(Cl)cc3)c(=O)n2C[C@@H]2CCC(=O)N2)n1C [Example 10, 1-(4-Chlorobenzyl)-8-ethyl-7-methyl-3-{[(2S)-5-oxopyrrolidin-2-yl]methyl}-3,7-dihydro-1H-purine-2,6-dione] |
| 11.1 µM | CCCn1c(=O)n(Cc2ccc3nsnc3c2)c(=O)c2c1nc(CC)n2C [Example 64, 1-(2,1,3-Benzothiadiazol-5-ylmethyl)-8-ethyl-7-methyl-3-propyl-3,7-dihydro-1H-purine-2,6-dione] |
| 3.5 µM | CCc1nc2c(c(=O)n(Cc3ccc(Cl)cc3)c(=O)n2CCC(F)(F)F)n1C [Example 75] |
| 3.6 µM | CCCn1c(=O)n(Cc2ccc(Cl)cc2)c(=O)c2c1nc(N1CCCC1)n2C [Example 86, 1-(4-chlorobenzyl)-7-methyl-3-propyl-8-pyrrolidin-1-yl-3,7-dihydro-1H-purine-2,6-dione] |
| 6.1 µM | CCCn1c(=O)n(Cc2ccc(C(C)C)cc2)c(=O)c2c1nc(CC)n2C [Example 70, 8-Ethyl-1-(4-isopropylbenzyl)-7-methyl-3-propyl-3,7-dihydro-1H-purine-2,6-dione] |
| 4.9 µM | CCc1nc2c(c(=O)n(Cc3ccc(Cl)cc3)c(=O)n2CCCC(F)(F)F)n1C [Example 76] |
| 15.7 µM | CCCn1c(=O)n(Cc2ccc(C(=O)c3ccccc3)cc2)c(=O)c2c1nc(CC)n2C [Example 68, 1-(4-Benzoylbenzyl)-8-ethyl-7-methyl-3-propyl-3,7-dihydro-1H-purine-2,6-dione] |
| 2.5 µM | CCc1nc2c(c(=O)n(Cc3ccc(Cl)cc3)c(=O)n2Cc2ccc(S(C)(=O)=O)cc2)n1C [Example 22, 1-(4-chlorobenzyl)-8-ethyl-7-methyl-3-[4-(methylsulfonyl)benzyl]-3,7-dihydro-1H-purine-2,6-dione] |
| 11.9 µM | CCc1nc2c(c(=O)n(Cc3ccc(Cl)cc3)c(=O)n2CC(=O)N(C(C)C)C(C)C)n1C [Example 51, 2-[1-(4-Chlorobenzyl)-8-ethyl-7-methyl-2,6-dioxo-1,2,6,7-tetrahydro-3H-purin-3-yl]-N,N-diisopropylacetamide] |
| 2.6 µM | CCc1nc2c(c(=O)n(Cc3ccc(Cl)cc3)c(=O)n2CC(=O)c2ccccc2)n1C [Example 28, 1-(4-chlorobenzyl)-8-ethyl-7-methyl-3-(2-oxo-2-phenylethyl)-3,7-dihydro-1H-purine-2,6-dione] |
| 11.3 µM | CCc1nc2c(c(=O)n(Cc3ccc(Cl)cc3)c(=O)n2Cc2ccc(OC)cc2OC)n1C [Example 71, 1-(4-Chlorobenzyl)-3-(2,4-dimethoxybenzyl)-8-ethyl-7-methyl-3,7-dihydro-1H-purine-2,6-dione] |
| 6.8 µM | CCc1nc2c(c(=O)n(Cc3ccc(Cl)cc3)c(=O)n2Cc2cc(C)on2)n1C [Example 16, 1-(4-Chlorobenzyl)-8-ethyl-7-methyl-3-[(5-methylisoxazol-3-yl)methyl]-3,7-dihydro-1H-purine-2,6-dione] |

Further lines, the compound ahead of its results:

| Compound | EC50 |
| --- | --- |
| CCc1nc2c(c(=O)n(Cc3ccc(Cl)cc3)c(=O)n2CCCOc2ccc(C(F)(F)F)cc2)n1C [Example 36, 1-(4-chlorobenzyl)-8-ethyl-7-methyl-3-{3-[4-(trifluoromethyl)phenoxy]propyl}-3,7-dihydro-1H-purine-2,6-dione] | 6.6 µM |
| CCc1nc2c(c(=O)n(Cc3ccc(Cl)cc3)c(=O)n2CC(=O)OC(C)(C)C)n1C [Example 35, tert-butyl [1-(4-chlorobenzyl)-8-ethyl-7-methyl-2,6-dioxo-1,2,6,7-tetrahydro-3H-purin-3-yl]acetate] | 5.6 µM |
| CCc1nc2c(c(=O)n(Cc3ccc(Cl)cc3)c(=O)n2Cc2ccccc2)n1C [Example 1, 3-benzyl-1-(4-chlorobenzyl)-8-ethyl-7-methyl-3,7-dihydro-1H-purine-2,6-dione] | 6.33 µM |
| CCc1nc2c(c(=O)n(Cc3ccc(Cl)cc3)c(=O)n2CC(C)C)n1C [Example 8, 1-(4-Chlorobenzyl)-8-ethyl-3-isobutyl-7-methyl-3,7-dihydro-1H-purine-2,6-dione] | 2.7 µM |
| CCCn1c(=O)n(Cc2ccc(Cl)cc2)c(=O)c2c1nc(CC)n2-c1ccc(F)cc1 [Example 74, 1-(4-Chlorobenzyl)-8-ethyl-7-(4-fluorophenyl)-3-propyl-3,7-dihydro-1H-purine-2,6-dione] | 9.9 µM |
| CCc1nc2c(c(=O)n(Cc3ccc(Cl)cc3)c(=O)n2CCCOC(C)(C)C)n1C [Example 21, 3-(3-tert-butoxypropyl)-1-(4-chlorobenzyl)-8-ethyl-7-methyl-3,7-dihydro-1H-purine-2,6-dione] | 7.2 µM |
| CCCn1c(=O)n(Cc2ccc(Cl)cc2)c(=O)c2c1nc(N(CC)CC)n2C [Example 89, 1-(4-chlorobenzyl)-8-(diethylamino)-7-methyl-3-propyl-3,7-dihydro-1H-purine-2,6-dione] | 1.8 µM |
| CCc1nc2c(c(=O)n(Cc3ccc(Cl)cc3)c(=O)n2CC(=O)C(C)(C)C)n1C [Example 4, 1-(4-Chlorobenzyl)-3-(3,3-dimethyl-2-oxobutyl)-8-ethyl-7-methyl-3,7-dihydro-1H-purine-2,6-dione] | 1.6 µM |
| CCCn1c(=O)n(Cc2ccc(Cl)cc2)c(=O)c2c1nc(C(C)O)n2C (stereo not shown) [Example 96, 1-(4-chlorobenzyl)-8-(1-hydroxyethyl)-7-methyl-3-propyl-3,7-dihydro-1H-purine-2,6-dione] | 12.2 µM |
| CCc1nc2c(c(=O)n(Cc3ccc(Cl)c(Cl)c3)c(=O)n2CCCCC2CCCCC2)n1C [Example 44, 3-(4-Cyclohexylbutyl)-1-(3,4-dichlorobenzyl)-8-ethyl-7-methyl-3,7-dihydro-1H-purine-2,6-dione] | 12.5 µM |
| CCCn1c(=O)n(Cc2ccc(Cl)cc2)c(=O)c2c1nc(N(C)C)n2C [Example 82, 1-(4-chlorobenzyl)-8-(dimethylamino)-7-methyl-3-propyl-3,7-dihydro-1H-purine-2,6-dione] | 5.6 µM |
| CCCn1c(=O)n(Cc2ccc(Cl)cc2)c(=O)c2c1nc(OC)n2C [Example 78, 1-(4-Chlorobenzyl)-8-methoxy-7-methyl-3-propyl-3,7-dihydro-1H-purine-2,6-dione] | 4.5 µM |
